# What was measured:
# human CYP11B1 = target: T1, human CYP11B1 (Homo sapiens, UniProt P15538); assay: G-402 cellular enzyme assay, human CYP11B1 (cortisol release, HTRF); assay type: cell-based; settings: G-402 cells expressing human CYP11B1; 1 μM Deoxycortisol
# T1 construct: expressed in transfected cells
# T1 sequence (P15538 25-503): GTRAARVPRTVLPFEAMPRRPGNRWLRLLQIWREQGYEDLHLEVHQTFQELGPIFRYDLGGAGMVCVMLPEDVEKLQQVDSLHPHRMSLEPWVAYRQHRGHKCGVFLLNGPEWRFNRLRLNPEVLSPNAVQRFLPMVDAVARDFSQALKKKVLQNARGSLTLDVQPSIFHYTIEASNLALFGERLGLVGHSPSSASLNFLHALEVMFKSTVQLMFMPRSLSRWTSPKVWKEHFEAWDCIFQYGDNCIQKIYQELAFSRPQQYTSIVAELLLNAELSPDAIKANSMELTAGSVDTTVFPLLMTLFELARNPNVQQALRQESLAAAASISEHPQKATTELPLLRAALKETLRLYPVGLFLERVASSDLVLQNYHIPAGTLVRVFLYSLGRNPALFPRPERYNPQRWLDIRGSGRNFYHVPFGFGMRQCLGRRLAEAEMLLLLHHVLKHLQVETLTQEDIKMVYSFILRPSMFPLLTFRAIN
# Text: (§1) Herein we identified the use of the G-402 cell line as a host cell to ectopically express (transiently or stably) enzymes of the CYP11 family. Specifically we developed stable G-402 cells expressing ectopically human CYP11B1, human CYP11B2, human CYP11A1, cynmolgus CYP11B1 or cynomolgus CYP11B2 enzyme activity. Importantly the identified cell line G-402 expresses co-factors (adrenodoxin and adrenodoxin reductase) important for the activity of the CYP11 family and no relevant enzyme activity of the CYP11 family (in comparison to H295R cells) was detected in these cells. Therefore the G-402 cell line is uniquely suited as a host cell for the ectopic expression of enzymes from the CYP11 family.
# (§2) The expression plasmids contains the ORF for either human/cyno CYP11B1 or CYP11B2 under the control of a suitable promoter (CMV-promoter) and a suitable resistance marker (neomycin). Using standard techniques the expression plasmid is transfected into G-402 cells and these cells are then selected for expressing the given resistance markers. Individual cell-clones are then selected and assessed for displaying the desired enzymatic activity using 11-Deoxycorticosterone (Cyp11B2) or 11-Deoxycortisol (Cyp11B1) as a substrate.
# (§3) G-402 cells expressing CYP11 constructs were established as described above and maintained in McCoy's 5a Medium Modified, ATCC Catalog No. 30-2007 containing 10% FCS and 400 μg/ml G418 (Geneticin) at 37° C. under an atmosphere of 5% CO2/95% air.
# (§4) Cellular enzyme assays were performed in DMEM/F12 medium containing 2.5% charcoal treated FCS and appropriate concentration of substrate (0.3-10 uM 11-Deoxycorticosterone, 11-Deoxycortisol or Corticosterone). For assaying enzymatic activity, cells were plated onto 96 well plates and incubated for 16 h. An aliquot of the supernatant is then transferred and analyzed for the concentration of the expected product (Aldosterone for CYP11B2; Cortisol for CYP11B1). The concentrations of these steroids can be determined using HTRF assays from CisBio analyzing either Aldosterone or Cortisol.
# (§5) Inhibition of the release of produced steroids can be used as a measure of the respective enzyme inhibition by test compounds added during the cellular enzyme assay. The dose dependent inhibition of enzymatic activity by a compound is calculated by means of plotting added inhibitor concentrations (x-axes) vs. measured steroid/product level (y-axes). The inhibition is then calculated by fitting the following 4-parameter sigmoidal function (Morgan-Mercer-Flodin (MMF) model) to the raw data points using the least squares method:
# (§6) [formula] wherein, A is the maximum y value, B is the EC50 factor determined using XLFit, C is the minimum y value and D is the slope value.
# (§7) EC50 values for compounds claimed herein were tested with the G402-based assay system described. Cyp11B2 enzyme activity was tested in presence of 1 μM Deoxycorticosterone and variable amounts of inhibitors; Cyp11B1 enzyme activity was tested in presence of 1 μM Deoxycortisol and variable amounts of inhibitors.
# human CYP11B2 = target: T2, human CYP11B2 (Homo sapiens, UniProt P19099); assay: G-402 cellular enzyme assay, human CYP11B2 (aldosterone release, HTRF); assay type: cell-based; settings: G-402 cells expressing human CYP11B2; 1 μM Deoxycorticosterone
# T2 construct: expressed in transfected cells
# T2 sequence (P19099 25-503): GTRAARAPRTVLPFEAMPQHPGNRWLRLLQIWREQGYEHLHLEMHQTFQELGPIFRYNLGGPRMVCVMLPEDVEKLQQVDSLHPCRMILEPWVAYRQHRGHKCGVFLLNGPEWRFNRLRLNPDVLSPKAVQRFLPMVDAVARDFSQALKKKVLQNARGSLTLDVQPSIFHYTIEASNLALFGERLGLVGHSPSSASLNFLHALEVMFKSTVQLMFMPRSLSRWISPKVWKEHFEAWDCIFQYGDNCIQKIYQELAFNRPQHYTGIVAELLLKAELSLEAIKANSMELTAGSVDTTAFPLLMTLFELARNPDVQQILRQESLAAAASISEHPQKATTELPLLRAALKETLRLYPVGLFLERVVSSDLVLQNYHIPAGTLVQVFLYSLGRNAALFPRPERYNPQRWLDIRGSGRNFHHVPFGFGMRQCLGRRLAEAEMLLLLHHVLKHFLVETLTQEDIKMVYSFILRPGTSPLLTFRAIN
# Text: as §1, §2, §3, §4, §5, §6, §7
# [1] = system: rat model of chronic kidney disease; settings: cited from earlier work; for cardiac and aortic medial hypertrophy / renal effects of angiotensin II and high salt (albuminuria, azotemia, renovascular hypertrophy, glomerular injury, PAI-1 and osteopontin mRNA, tubulointerstitial fibrosis): rat, in vivo
# [2] = system: rats with experimental heart failure; settings: rat, in vivo; cited from earlier work
# [3] = system: patients with primary aldosteronism; settings: oral; cited from earlier work
structure (smiles),measurement,setting,value
"Cc1c(Cn2c(C)cccc2=O)cncc1-c1cc2c(cc1F)N(C)C(=O)CC2 [Example 24, 7-Fluoro-1-methyl-6-[4-methyl-5-(6-methyl-2-oxo-2H-pyridin-1-ylmethyl)-pyridin-3-yl]-3,4-dihydro-1H-quinolin-2-one]",EC50,human CYP11B1,2.14 µM
same,EC50,human CYP11B2,0.0165 µM
"Cc1c(Cn2c(Cl)cccc2=O)cncc1-c1cc2c(cc1F)N(C)C(=O)CC2 [Example 25, 6-[5-(6-Chloro-2-oxo-2H-pyridin-1-ylmethyl)-4-methyl-pyridin-3-yl]-7-fluoro-1-methyl-3,4-dihydro-1H-quinolin-2-one]",EC50,human CYP11B1,0.234 µM
same,EC50,human CYP11B2,0.0021 µM
"Cc1c(Cn2cccc(F)c2=O)cncc1-c1cc2c(cc1F)N(C)C(=O)CC2 [Example 26, 7-Fluoro-6-[5-(3-fluoro-2-oxo-2H-pyridin-1-ylmethyl)-4-methyl-pyridin-3-yl]-1-methyl-3,4-dihydro-1H-quinolin-2-one]",EC50,human CYP11B1,0.0448 µM
same,EC50,human CYP11B2,0.001 µM
"Cc1c(Cn2c(F)cccc2=O)cncc1-c1cc2c(cc1F)N(C)C(=O)CC2 [Example 27, 7-Fluoro-6-[5-(6-fluoro-2-oxo-2H-pyridin-1-ylmethyl)-4-methyl-pyridin-3-yl]-1-methyl-3,4-dihydro-1H-quinolin-2-one]",EC50,human CYP11B1,0.0913 µM
same,EC50,human CYP11B2,0.001 µM
N#Cc1ccc([C@H]2CCCc3cncn32)cc1 [FAD286],plasma aldosterone,[1]; following 4 weeks of treatment,reduced
same,cardiac and aortic medial hypertrophy,[1],attenuated
same,"renal effects of angiotensin II and high salt (albuminuria, azotemia, renovascular hypertrophy, glomerular injury, PAI-1 and osteopontin mRNA, tubulointerstitial fibrosis)",[1],prevented
same,blood pressure and cardiovascular function and structure,[2],improved
same,kidney function and morphology,[2],improve
N#Cc1ccc([C@H]2CCc3cncn32)c(F)c1 [LCI699],blood pressure,[3],mildly decreased
same,circulating aldosterone levels,[3],significantly lower
same,hypokalemia,[3],corrected
same,selectivity (effects on the glucocorticoid axis),[3],poor selectivity
CC(=O)S[C@@H]1CC2=CC(=O)CC[C@]2(C)[C@H]2CC[C@@]3(C)[C@@H](CC[C@@]34CCC(=O)O4)[C@H]12 [spironolactone],aldosterone,[1]; at 4 and 8 weeks of treatment,increased
same,angiotensin II and salt-stimulated PAI-1 mRNA expression,[1]; in the aorta and the heart,enhanced
same,cardiac and aortic medial hypertrophy,[1],attenuated
same,"renal effects of angiotensin II and high salt (albuminuria, azotemia, renovascular hypertrophy, glomerular injury, PAI-1 and osteopontin mRNA, tubulointerstitial fibrosis)",[1],prevented

# From patent US9593107B2, “Dihydroquinoline-2-one derivatives” (Hoffmann-La Roche Inc., priority 2014, dated 2017)
